Results as given in patent publication US6635649B2, “Piperazinedione compounds” (priority 2000, dated 2003).

Compound: O=c1[nH]c(=Cc2ccco2)c(=O)[nH]c1=Cc1ccc(OCc2ccccc2)cn1 [Compound 7, 3-[(5-benzyloxypyridin-2-yl)methylidene]-6-[(furan-2-yl)methylidene]piperazine-2,5-dione]
- melting point: 256 to 257 °C

Compound: O=c1[nH]c(=Cc2ccc(OCc3ccccc3)cn2)c(=O)[nH]c1=Cc1ccccn1 [Compound 9, 3-[(5-benzyloxypyridin-2-yl)methylidene]-6-[(2-pyridinyl)methylidene]piperazine-2,5-dione]
- melting point: 248 to 250 °C

Compound: O=c1[nH]c(=Cc2ccc(OCc3ccccc3)cn2)c(=O)[nH]c1=Cc1ccc(OCc2ccccc2)cn1 [Compound 10, 3,6-di[(5-phenylmethoxypyridin-2-yl)methylidene]piperazine-2,5-dione]
- melting point: 283 to 328 °C

Compound: CC(=O)N1CC(=O)NC(Cc2ccc(OCc3ccccc3)cn2)C1=O (centres unmarked) [Compound 12, 1-acetyl-3-[(5-benzyloxypyridin-2-yl)methyl]piperazine-2,5-dione]
- melting point: 215 to 216 °C

Compound: O=C1NC(Cc2ccc(OCc3ccccc3)cn2)C(=O)NC1Cc1ccc(OCc2ccccc2)cn1 (centres unmarked) [Compound 13, 3,6-di[(5-benzyloxypyridin-2-yl)methyl]piperazine-2,5-dione]
- melting point: 228 to 231 °C
